Test results: PubChem BioAssay (NCI)
Values joined by “and” are separate entries in the source; they are usually repeats but may differ in a detail not shown here. Identical values can stand only once.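 These data come from cells grown in 96-well plates and exposed to compound for 48 hours at five concentrations. Abbreviation: GI50, concentration required for 50% inhibition of growth. The concentration for full growth arrest is given as TGI.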

Key:
Test in all cases: NCI tumour cell line growth inhibition, 48 h
OVCAR-4 ovarian = system: OVCAR-4 ovarian
HT29 colon = system: HT29 colon
DU-145 prostate = system: DU-145 prostate
MCF7 breast = system: MCF7 breast
RPMI-8226 leukemia = system: RPMI-8226 leukemia
KM12 colon = system: KM12 colon
ACHN renal = system: ACHN renal
U251 CNS = system: U251 CNS
PC-3 prostate = system: PC-3 prostate
SF-295 CNS = system: SF-295 CNS

`CCc1ccc2c(c1)C(=O)c1c-2n(CCCN=[N+]=[N-])c(=O)c2cc([N+](=O)[O-])ccc12` showed a GI50 (OVCAR-4 ovarian) of 49.6 µM, a TGI (OVCAR-4 ovarian) of over 50 µM and a GI50 (HT29 colon) of over 50 µM. It also gave a TGI (HT29 colon) of over 50 µM, a GI50 (DU-145 prostate) of over 50 µM and a TGI (DU-145 prostate) of over 50 µM. It also gave a GI50 (MCF7 breast) of over 50 µM, a TGI (MCF7 breast) of over 50 µM and a GI50 (RPMI-8226 leukemia) of over 50 µM. The TGI (RPMI-8226 leukemia) was over 50 µM, the GI50 (KM12 colon) was over 50 µM and the TGI (KM12 colon) was over 50 µM. For the same compound, the GI50 (ACHN renal) was over 50 µM, the TGI (ACHN renal) was over 50 µM and the GI50 (U251 CNS) was over 50 µM. It also gave a TGI (U251 CNS) of over 50 µM, a GI50 (PC-3 prostate) of over 50 µM and a TGI (PC-3 prostate) of over 50 µM. It also gave a GI50 (SF-295 CNS) of over 50 µM and a TGI (SF-295 CNS) of over 50 µM.

`c1ccc2c(c1)[nH]c1c2cc[n+]2cc3c(cc12)CCCC3` was tested, and the GI50 (OVCAR-4 ovarian) was 2.14 µM, the TGI (OVCAR-4 ovarian) was 7.6 µM and 5.73 µM and the GI50 (HT29 colon) was 2.4 µM. For the same compound, the TGI (HT29 colon) was 9.74 µM and 19.6 µM, the TGI (DU-145 prostate) was 11 µM and 17 µM and the TGI (MCF7 breast) was 10.9 µM and 11 µM. For the same compound, the GI50 (RPMI-8226 leukemia) was 2.16 µM, the TGI (RPMI-8226 leukemia) was 6.28 µM and 3.73 µM and the GI50 (KM12 colon) was 2.3 µM. The TGI (KM12 colon) was 9.85 µM and 6.53 µM, the TGI (ACHN renal) was 16.1 µM and 14.1 µM and the TGI (U251 CNS) was 9.77 µM and 12.1 µM. For the same compound, the TGI (PC-3 prostate) was 10.9 µM and 29 µM and the TGI (SF-295 CNS) was 16 µM and 14.5 µM.

For `COc1ccc(-c2ccc3c(N4CCOC[C@@H]4C)nc(N4CCOC[C@@H]4C)nc3n2)cc1CO`, the GI50 (OVCAR-4 ovarian) was 0.00414 µM and < 0.0142 µM, the TGI (OVCAR-4 ovarian) was 0.0382 µM and 0.12 µM and the GI50 (HT29 colon) was 0.00674 µM and 0.0385 µM. The TGI (HT29 colon) was > 10 µM and 5.9 µM, the GI50 (DU-145 prostate) was 0.00584 µM and 0.0416 µM and the TGI (DU-145 prostate) was over 100 µM. The GI50 (MCF7 breast) was 0.00432 µM and < 0.0133 µM, the TGI (MCF7 breast) was > 3.27 µM and 1.34 µM and the GI50 (RPMI-8226 leukemia) was 0.00363 µM and 0.0281 µM. For the same compound, the GI50 (KM12 colon) was 0.00626 µM and 0.0449 µM, the TGI (KM12 colon) was over 100 µM and the GI50 (ACHN renal) was 0.00495 µM and 0.0209 µM. The TGI (ACHN renal) was over 100 µM, the GI50 (U251 CNS) was 0.00762 µM and 0.0341 µM and the TGI (U251 CNS) was over 54.1 µM. For the same compound, the GI50 (PC-3 prostate) was 0.00478 µM and < 0.0109 µM, the TGI (PC-3 prostate) was over 100 µM and the GI50 (SF-295 CNS) was 0.00412 µM and < 0.011 µM. The TGI (SF-295 CNS) was 0.0462 µM and 0.18 µM.

`COc1ccc(-c2cnnn2-c2nonc2-n2cccc2)cc1` gave a GI50 (OVCAR-4 ovarian) of 1.78 µM, a TGI (OVCAR-4 ovarian) of over 100 µM and a GI50 (HT29 colon) of 0.128 µM. For the same compound, the TGI (HT29 colon) was 2.8 µM, the GI50 (DU-145 prostate) was 0.342 µM and the TGI (DU-145 prostate) was 2.62 µM. For the same compound, the GI50 (MCF7 breast) was 0.277 µM, the TGI (MCF7 breast) was 60.3 µM and the GI50 (RPMI-8226 leukemia) was 0.353 µM. It also gave a TGI (RPMI-8226 leukemia) of 5.02 µM, a GI50 (KM12 colon) of 0.16 µM and a TGI (KM12 colon) of 8.53 µM. It also gave a GI50 (ACHN renal) of 1.05 µM, a TGI (ACHN renal) of over 94 µM and a GI50 (U251 CNS) of 0.344 µM. The TGI (U251 CNS) was 8.41 µM, the GI50 (PC-3 prostate) was 0.331 µM and the TGI (PC-3 prostate) was 31.9 µM. It also gave a GI50 (SF-295 CNS) of 0.246 µM and a TGI (SF-295 CNS) of 6.21 µM.

For `O=C(/C(=C\c1c(-c2ccccc2)[nH]c2ccccc12)S(=O)(=O)c1ccccc1)c1ccccc1`, the GI50 (OVCAR-4 ovarian) was 6.58 µM, the TGI (OVCAR-4 ovarian) was over 100 µM and the GI50 (HT29 colon) was over 100 µM. The TGI (HT29 colon) was over 100 µM, the GI50 (DU-145 prostate) was over 100 µM and the TGI (DU-145 prostate) was over 100 µM. For the same compound, the GI50 (MCF7 breast) was 5.63 µM, the TGI (MCF7 breast) was over 100 µM and the GI50 (RPMI-8226 leukemia) was 7.61 µM. It also gave a TGI (RPMI-8226 leukemia) of over 100 µM, a GI50 (KM12 colon) of 5.06 µM and a TGI (KM12 colon) of over 100 µM. The GI50 (ACHN renal) was 6.67 µM, the TGI (ACHN renal) was over 100 µM and the GI50 (U251 CNS) was 8.64 µM. For the same compound, the TGI (U251 CNS) was over 100 µM, the GI50 (PC-3 prostate) was 4.96 µM and the TGI (PC-3 prostate) was over 100 µM. It also gave a GI50 (SF-295 CNS) of 3.47 µM and a TGI (SF-295 CNS) of over 100 µM.

`CC(C)[C@H](O)C(=O)N[C@@H](C)C(=O)N[C@@H]1C(=O)N(C)CCc2ccccc21` gave a GI50 (OVCAR-4 ovarian) of over 100 µM, a TGI (OVCAR-4 ovarian) of over 100 µM and a GI50 (HT29 colon) of over 100 µM. The TGI (HT29 colon) was over 100 µM, the GI50 (DU-145 prostate) was over 100 µM and the TGI (DU-145 prostate) was over 100 µM. It also gave a GI50 (MCF7 breast) of over 100 µM, a TGI (MCF7 breast) of over 100 µM and a GI50 (RPMI-8226 leukemia) of over 100 µM. It also gave a TGI (RPMI-8226 leukemia) of over 100 µM, a GI50 (KM12 colon) of over 100 µM and a TGI (KM12 colon) of over 100 µM. It also gave a GI50 (ACHN renal) of over 100 µM, a TGI (ACHN renal) of over 100 µM and a GI50 (U251 CNS) of over 100 µM. It also gave a TGI (U251 CNS) of over 100 µM, a GI50 (PC-3 prostate) of over 100 µM and a TGI (PC-3 prostate) of over 100 µM. It also gave a GI50 (SF-295 CNS) of over 100 µM and a TGI (SF-295 CNS) of over 100 µM.

`COC(c1ccc(C(C)(C)C)cc1)(c1ccc(C(C)(C)C)cc1)c1ccc(C(C)(C)C)cc1` gave a TGI (OVCAR-4 ovarian) of over 100 µM, a TGI (HT29 colon) of over 100 µM and a TGI (DU-145 prostate) of over 100 µM. For the same compound, the TGI (MCF7 breast) was over 100 µM, the TGI (RPMI-8226 leukemia) was over 100 µM and the TGI (KM12 colon) was over 100 µM. For the same compound, the TGI (ACHN renal) was over 100 µM, the TGI (U251 CNS) was over 100 µM and the TGI (PC-3 prostate) was over 100 µM. It also gave a TGI (SF-295 CNS) of over 100 µM.

`COc1ccc(C(CC(=O)c2ccc3c(c2)OCO3)c2c(O)c3ccccc3oc2=O)cc1OC` (stereo unspecified) was tested, and the TGI (OVCAR-4 ovarian) was over 100 µM, the TGI (HT29 colon) was over 100 µM and the TGI (DU-145 prostate) was over 100 µM. The TGI (MCF7 breast) was over 100 µM, the TGI (RPMI-8226 leukemia) was over 100 µM and the TGI (KM12 colon) was over 100 µM. It also gave a TGI (ACHN renal) of over 100 µM, a TGI (U251 CNS) of over 100 µM and a TGI (PC-3 prostate) of over 100 µM. For the same compound, the TGI (SF-295 CNS) was over 100 µM.

In the case of `OC(c1cc(-c2ccc(C(F)(F)F)cc2)nc(C(F)(F)F)c1)C1CCCCN1` (stereo unspecified), the TGI (OVCAR-4 ovarian) is reported as 5.6 µM, the GI50 (HT29 colon) is reported as 1.65 µM and the TGI (HT29 colon) is reported as 3.22 µM and 3.87 µM. The GI50 (DU-145 prostate) was 1.76 µM and 2.66 µM, the TGI (DU-145 prostate) was 3.14 µM and 7.06 µM and the GI50 (MCF7 breast) was 1.61 µM. For the same compound, the TGI (MCF7 breast) was 3.08 µM and 3.42 µM, the GI50 (RPMI-8226 leukemia) was 0.418 µM and the TGI (RPMI-8226 leukemia) was 2.04 µM and 5.07 µM. For the same compound, the TGI (KM12 colon) was 3.13 µM and 3.35 µM, the GI50 (ACHN renal) was 1.56 µM and 2.37 µM and the TGI (ACHN renal) was 2.9 µM and 6.39 µM. The GI50 (U251 CNS) was 1.53 µM, the TGI (U251 CNS) was 2.86 µM and 3.34 µM and the GI50 (PC-3 prostate) was 1.72 µM. For the same compound, the TGI (PC-3 prostate) was 3.37 µM and 6.33 µM, the GI50 (SF-295 CNS) was 1.38 µM and 2.84 µM and the TGI (SF-295 CNS) was 2.7 µM and 6.54 µM.

For `O=C(Nc1cc(Cl)ccc1O)c1ccc(Nc2ccnc(C(F)(F)F)c2)cc1`, the GI50 (OVCAR-4 ovarian) was 3.56 µM, the TGI (OVCAR-4 ovarian) was over 100 µM and the GI50 (HT29 colon) was 6.35 µM. For the same compound, the TGI (HT29 colon) was over 100 µM, the GI50 (DU-145 prostate) was 3.25 µM and the TGI (DU-145 prostate) was over 100 µM. The GI50 (MCF7 breast) was 2.68 µM, the TGI (MCF7 breast) was over 100 µM and the GI50 (RPMI-8226 leukemia) was 1.25 µM. It also gave a TGI (RPMI-8226 leukemia) of 3.83 µM, a GI50 (KM12 colon) of 3.19 µM and a TGI (KM12 colon) of 18.8 µM. For the same compound, the GI50 (ACHN renal) was 2.35 µM, the TGI (ACHN renal) was 7.42 µM and the GI50 (U251 CNS) was 3.47 µM. The TGI (U251 CNS) was over 100 µM, the GI50 (PC-3 prostate) was 2.72 µM and the TGI (PC-3 prostate) was 9.02 µM. It also gave a GI50 (SF-295 CNS) of 2.2 µM and a TGI (SF-295 CNS) of 7.03 µM.
